Legend:
[1] = test system: rat blood granulocytes; test: In vitro-ex vivo chemotactic activity of rat blood granulocytes (modified Boyden chamber); settings: for Chemotaxis (μm ± S.E.) induced: casein-induced migration; for Chemotaxis (μm ± S.E.) induced / Chemotaxis (μm ± S.E.) spontaneous: 25 mg/kg/d i.p. day -5 through day -1; for Chemotaxis (μm ± S.E.) spontaneous: spontaneous migration (Hank's medium)
Experimental: In vitro-ex vivo effects of ST 689 and ST 789 on the chemotactic activity of rat blood granulocytes.
(§1) Inbred male Fisher 344 rats (Charles River, Italy), ca. 6 months old, were used in experimental groups of 5 animals. Test animals received the compounds at dosage of 25 mg/kg daily from day -5 through day -1 relative to the day of blood sampling (day 0). The experimental procedure employed is described in Cates, L. K. et al., Modified Boyden chamber method of measuring polymorphonuclear leukocyte chemotaxis, in Leukocyte chemotaxis, Raven Press, New York, N.Y., 1978, p. 67.
Blood was sampled from decapitated animals that, after passage through heparinised gauze, was diluted 1/1 with dextran (1.5% in physiological solution) and allowed to sediment for 90 min. The granulocytes, extracted from whole blood by the usual methods; were brought to a concentration of 2×10^6 cells/mL in Hank's medium. They were then deposited on Millipore filters (3 μm) and placed in migration chambers. These chambers contained either Hank's medium for the evaluation of spontaneous migration, or casein (2 mL of a 5 mg/mL solution) for the evaluation of induced migration. After incubating the samples for 60 min at 37° C. with 5% CO2, the Millipore filters were removed, stained, and inserted between microscope slides. Microscopic observations were performed to determine the furthest distance (in μm) traversed in controls and experimental samples by 2 granulocytes within the rectangular viewing field. Granulocytic migration is expressed as the average value of 10 detailed observations on two filters prepared from each sample.

[2] = Body and spleen weight of rats in the chemotaxis test (Test 3); format: in vivo, rat; settings: Fisher 344 rats; 25 mg/kg/d i.p. day -5 through day -1
Experimental: as §1

[3] = test system: Sarcoma 180; test: Protective effect in mice carrying Sarcoma 180; format: in vivo; settings: for % survival: CD1 mice carrying Sarcoma 180; for % survival / Died/Total / MST (Mean Survival Time; median): 25 mg/kg/d i.p. day +1 through +10; for Died/Total / MST (Mean Survival Time; median): CD1 mice, 1×10^4 Sarcoma 180 cells i.p.; for MST (Mean Survival Time; median): 25 mg/kg/day; for Body weight (x ± S.E.) of Sarcoma 180-carrying animals: 25 mg/kg/d i.p., in g
Experimental: Evaluation of the protective effect of ST 689 and ST 789 in tumour-carryingmice,
Outbred male CDI mice (Charles River, Italy), 7 weeks old, were used. Experimental groups containing 10 animals were inoculated i.p. with 1×10^4 Sarcoma 180 cells (ATCC, Rockville, Md., U.S.A.) in 0.1 mL of TC 199 medium. The compounds were administered intraperitoneally in 0.2 mL of sterile physiological solution at daily doses of 25 mg/kg from day +1 through day +10 relative to the day of tumour transplant (day 0). In addition, body weights of the animals were followed from day 0 through day 20. The weights of the animals can be indicative of the development of neoplastic processes. The activity of the compounds was evaluated in terms of % survival expressed as the Mean Survival Time (MST). The data reported in Table 4 indicate a substancial protective effect of ST 689 compared to ST 789 vis-a-vis % survival (20% vs. 10%) in terms of MST (21 vs. 17).

[4] = test system: IL-2; test: In vitro-ex vivo production of IL-2 by rat splenocytes (CTLL-2 bioassay); settings: for IL-2 in supernates from rat splenocytes: ConA-stimulated splenocytes, 48 h, 25 mg/kg daily i.p. day -5 through day -1
Experimental: In vitro-ex vivo effect of ST 689 and ST 789 on the production of IL-2 by rat splenocytes.
Male Fisher rats (Charles River, Italy), 3 months old, in experimental groups of 5 animals, were treated with the substances at daily dosages of 25 mg/kg from day -5 through day -1 relative to the day the spleens were sampled (day 0). The experimental procedure employed was that reported in [1]. To suspensions of splenocytes, prepared in RPMI 1640 with 10% FCS+1×10^-5 M β-mercaptoethanol and standardised to a concentration of 1×10^7 cells/mL, were added equal volumes of ConA at a concentration of 18 μg/mL/well. After incubating for 48 h at 37° C. in the presence of 5% CO2 the samples were centrifuged and the supernates collected. Serial dilutions of the supernates were added to CTLL-2 cells (a line of T-cells requiring IL-2 for growth) standardised at 5×10^4 cells/mL. Following an overnight incubation, the samples were labelled with ^3 H--TdR (0.5 μCi/well)for 6 h, then the cells were collected on filters using a cell harvester, and counted (cpm) using a β-counter. The results are expressed in units of IL-2, comparing the counts in the samples to a standard curve prepared with purified IL-2 . . . ls1.

[5] = test system: mouse peritoneal exudate cells (PECs); test: In vitro-ex vivo phagocytic activity of mouse peritoneal exudate cells (PECs); settings: for % Phagocytic cells: % of cells that had phagocytosed relative to potential phagocytes in PECs; for % Phagocytic cells / SRBC phagocytosed / SRBC per phagocyte: 25 mg/kg daily i.p. day -5 through day -1; for SRBC phagocytosed: average number of SRBC phagocytosed by 100 potential phagocytes; for SRBC per phagocyte: average number of SRBC phagocytosed per phagocyte
Experimental: In vitro-ex vivo effects of ST 689 and ST 789 on phagocytic activity of mouse peritoneal exudate cells (PECs).
Male B6 D2 F1 mice (Charles River, Italy), 6 weeks old, in experimental groups of 5 animals, were treated with the above substances i.p. at daily doses of 25 mg/kg from day -5 through day -1 relative to the day the PECs were sampled (day 0). The experimental procedure followed those described in [1] and [2]; briefly, the animals in each group were asphyxiated with CO2, the peritoneal cavities repeatedly washed, and the PECs recovered from each experimental group pooled and standardised to 4×10^6 cells/mL. Aliquots (250 μL) of phagocyte suspension were added to equal volumes of 0.4% SRBC that had been appropriately opsonised with hyperimmune serum. The samples, prepared in duplicate, were incubated for 1 h and then osmotically shocked to eliminate non-phagocytosed erythrocytes. After adjusting the osmolarity to normal values, the phagocytes were centrifuged and differentially stained. Microscopic counts of cells with phagocytic capabilities and of phagocytosed SRBC in fields of 200 cells were performed in triplicate. The results are expressed as % phagocytic cells, the average number of SRBC phagocytosed per phagocyte, and the total number of SRBC phagocytosed per 100 phagocytes.

[6] = day +13, number in parentheses = animals still alive
[7] = day +15, number in parentheses = animals still alive
[8] = day +17, number in parentheses = animals still alive
[9] = day +20, number in parentheses = animals still alive

SMILES	Chemotaxis (μm ± S.E.) induced [1] [μm]	Chemotaxis (μm ± S.E.) spontaneous [1] [μm]	Body wt [2] [g]	Spleen wt [2] [mg]	% survival [3] [%]	Died/Total [3]	MST (Mean Survival Time; median) [3]	Body weight (x ± S.E.) of Sarcoma 180-carrying animals ([3]; day 0)	Body weight (x ± S.E.) of Sarcoma 180-carrying animals ([3]; day +1)	Body weight (x ± S.E.) of Sarcoma 180-carrying animals ([3]; day +3)	Body weight (x ± S.E.) of Sarcoma 180-carrying animals ([3]; day +6)	Body weight (x ± S.E.) of Sarcoma 180-carrying animals ([3]; day +8)	Body weight (x ± S.E.) of Sarcoma 180-carrying animals ([3]; day +10)	Body weight (x ± S.E.) of Sarcoma 180-carrying animals [3, 6]	Body weight (x ± S.E.) of Sarcoma 180-carrying animals [3, 7]	Body weight (x ± S.E.) of Sarcoma 180-carrying animals [3, 8]	Body weight (x ± S.E.) of Sarcoma 180-carrying animals [3, 9]	IL-2 in supernates from rat splenocytes [4] [U/mL]	% Phagocytic cells [5] [%]	SRBC phagocytosed [5]	also measured
N=C(N)NCCC[C@H](NC(=O)OCCCCCn1cnc2c(=O)[nH]cnc21)C(=O)O [ST 789, N-alfa-5-(hypoxanthin-9-yl)-pentyloxycarbonylarginine, reference compound]	30.4 ± 2.30	10.01 ± 1.09	345.6 ± 8.84	610.0 ± 22.00	10	9/10	17	22.8 ± 0.30	23.6 ± 0.34	24.8 ± 0.30	27.6 ± 0.46	29.5 ± 0.64	31.5 ± 0.92	32.2 ± 0.96	33.4 ± 1.05	33.7 ± 1.46	34.8 ± 3.90	98.43 ± 4.47	31.5 ± 0.5	152.5 ± 9.5	SRBC per phagocyte [5]: 4.85 ± 0.25
O=c1[nH]cnc2c1cnn2CCCCCO [ST 689, 1,5-dihydro-1-(5-hydroxypentyl)-4H-pyrazolo-[3,4-d]-pyrimidin-4-one]	44.8 ± 1.40	14.40 ± 0.40	358.0 ± 9.49	591.4 ± 17.13	20	8/10	21	23.0 ± 0.38	23.7 ± 0.34	24.5 ± 0.50	27.1 ± 0.62	28.3 ± 0.97	28.4 ± 0.81	28.6 ± 0.89	30.5 ± 1.28	32.5 ± 1.70	32.6 ± 1.85	183.25 ± 22.55	42.5 ± 0.5	229.5 ± 34.5	Increase of rat granulocyte chemotaxis, in words ([1]; 25 mg/kg/d i.p.): more active than ST 789; Neoplastic proliferation judged from body weights, in words ([3]; compared to animals treated with ST 789): diminution of neoplastic proliferation; Production of IL-2 by splenocytes, in words ([4]; compared to the same dosage of ST 789): increase in the production of IL-2; Effect on the phagocytic capabilities of PECs, in words ([5]; 25 mg/kg daily i.p.): extremely positive effect; SRBC per phagocyte [5]: 5.40 ± 0.90
